According to patent publication US20250144179A1, “PEPTIDE HORMONE TO PREVENT OR TREAT VASOSPASM, BRAIN INJURY OR CEREBRAL EDEMA” (UNIVERSITY OF FLORIDA RESEARCH FOUNDATION, INCORPORATED, priority 2022, published 2025):

Assays:
Format in all cases: in vivo, mouse
[1] = test system: eNOS; assay: Western blot of total eNOS and p-eNOS (Ser1179) in brain after SAH
Method: (§1) Synthetic adropin^34-76 peptide was supplied from Bachem (Bubendorf, Switzerland) and diluted in 0.1% BSA in saline. 0.1% BSA in saline was used as vehicle control for all experiments. Adropin (450 nmol/kg) or an equivalent volume of vehicle was delivered via intraperitoneal injection 15 minutes post-SAH. For experiments ending at 24 hours post-SAH, an identical dose of adropin/vehicle was given again 12 hours later. For experiments ending 7 days post-SAH, adropin/vehicle was given again on days 1, 3 & 5 post-SAH. In the aneurysm rupture model, adropin was given at a dose of 450 nmol/kg starting 3 days before aneurysm induction (elastase injection). Adropin was given every other day until sacrifice
SAH was modeled using the anterior circulation single autologous blood injection method^25,33 with minor adjustments. Mice were anesthetized with ketamine (100 mg/kg) and xylazine (10 mg/kg) before removing hair from scalp and cleaning with serial betadine—saline washes. The tail was also prepped from the base extending 1 cm distally. Mice were then fixed into a stereotaxic frame and body temperature maintained at 37° C. The scalp was incised along the sagittal suture from bregma to the nasal bone. The skin was reflected and a burr hole was drilled 5.0 mm rostral of bregma and 0.5 mm right laterally to avoid puncturing dural venous sinuses. […] 50 μL of blood was drawn into a Hamilton syringe (Hamilton, Reno, Nevada) and passed through the cranial burr hole at an angle of 30° caudally until contact with the skull base (approximately 7.2 mm). The syringe was left in place for 30 seconds to allow for tissue accommodation before blood was manually injected at a rate of 10 μL/minute. After blood injection was complete, the syringe was left in place for an additional 3 minutes and then retracted slowly at a rate of 10 mm/minute. Sham surgery was the identical procedure and timing including placement of the stereotactic needle but without blood injection. After the needle and syringe were removed, the burr hole was covered and skin flap was sutured with 5-0 ethilon suture.
At 24 hours or 7 days post-SAH, mice were deeply anesthetized and perfused with 10 mL of ice-cold PBS. Brains were harvested from the skull and placed into a cold brain matrix (Harvard Apparatus, Holliston, Massachusetts). The olfactory lobe was removed, and brains were cut in half along the mid-sagittal plane. The right hemisphere was cut again 2 mm caudally from the rostral edge and the pieces of tissue were snap frozen in liquid N2. Once all tissue samples were collected, brains were homogenized with a Dounce homogenizer and incubated in radioimmunoprecipitation assay (RIPA) buffer at 4° C. for 90 minutes with constant agitation. Samples were centrifuged, supernatant collected, and protein quantified via Bradford assay. Samples were then frozen at −20° C. or used immediately. 30 μg of total protein was separated electrophoretically through a 4-15% tris-glycine gel at 90V for 60 minutes and transferred onto nitrocellulose membranes with 0.45 μm pore size. Membranes were blocked with 5% skim milk in TBST (5% BSA for phospho-eNOS blots) for 1 hours at room temperature and then probed with specified primary antibodies (Table 1) diluted in 5% skim milk (5% BSA for phospho-eNOS) overnight at 4° C. with constant agitation. […]

[2] = test system: wild-type mice, SAH model; assay: Brain water content (cerebral edema) after SAH; conditions: 24 hours post-SAH, adropin 450 nmol/kg i.p.
Method: as §1
(§2) SAH was modeled using the anterior circulation single autologous blood injection method^25,33 with minor adjustments. Mice were anesthetized with ketamine (100 mg/kg) and xylazine (10 mg/kg) before removing hair from scalp and cleaning with serial betadine—saline washes. The tail was also prepped from the base extending 1 cm distally. Mice were then fixed into a stereotaxic frame and body temperature maintained at 37° C. […]
Brain water content was measured using the wet weight—dry weight method.^34 Twenty-four hours post-SAH, brains were removed from the skull and the olfactory lobe and hindbrain were removed from the cortex and midbrain. […]

[3] = test system: MMP9; assay: Western blot of MMP9 in brain after SAH; conditions: wild-type mice, adropin 450 nmol/kg i.p. vs vehicle
Method: as §1
as §2, with “C. The scalp was incised along the sagittal suture from bregma to the nasal bone.” for “C.”
At 24 hours or 7 days post-SAH, mice were deeply anesthetized and perfused with 10 mL of ice-cold PBS. […] Samples were centrifuged, supernatant collected, and protein quantified via Bradford assay. […]

[4] = test system: wild-type mice, SAH model; assay: Cerebral blood flow by laser speckle contrast imaging after SAH; conditions: day 1 post-SAH, adropin 450 nmol/kg i.p.
Method: as §1, §2
One day post-SAH, animals were anesthetized with ketamine/xylazine as described above, placed in a supine position in a stereotaxic frame. […] Blood flow (perfusion) values are calculated using PIMsoft software (PeriMed AB, Stockholm, Sweden) as arbitrary “perfusion units”. […]

[5] = test system: wild-type mice, SAH model; assay: Fibrinogen immunostaining for microthrombi after SAH; conditions: 24 hours post-SAH, adropin 450 nmol/kg i.p.
Method: as §1
SAH was modeled using the anterior circulation single autologous blood injection method^25,33 with minor adjustments. […]
Following perfusion-fixation and overnight post-fixation in 4% PFA, brain samples were embedded in paraffin wax and cut into […] sections with a Leica RM2125 RTS microtome (Leica Microsystems, Buffalo Grove, New York) and adhered to poly-L-lysine-coated glass slides. […] Primary antibodies were detected using donkey anti-rabbit IgG AlexaFluor594, donkey anti-rabbit IgG AlexaFluor488, donkey anti-rat IgG AlexaFluor594, or donkey anti-goat IgG AlexaFluor488 (all from ThermoFisher, Waltham, Massachusetts). […] All images were analyzed by two blinded observers.

[6] = test system: wild-type mice, SAH model; assay: Sodium fluorescein extravasation assay (blood-brain barrier permeability) after SAH; conditions: 24 hours post-SAH, adropin 450 nmol/kg i.p.
Method: as §1
as §2, with “C. The scalp was incised along the sagittal suture from bregma to the nasal bone. The skin was reflected and a burr hole was drilled 5.0 mm rostral of bregma and 0.5 mm right laterally to avoid puncturing dural venous sinuses.” for “C.”

adropin (CHSRSADVDSLSESSPNSSPGPCPEKAPPPQKPSHEGSYLLQP) [Synthetic adropin^34-76 peptide from Bachem]
phospho-eNOS levels ([1]; 7 day post-SAH): adropin treatment increase phospho-eNOS levels | total eNOS ([1]; 7 day post-SAH): slightly increased in both SAH groups; however, neither reached statistical significance | Phospho-eNOS/eNOS ratio ([1]; 7 day post-SAH, p=0.08 vs SAH+vehicle, p=0.08 vs sham+vehicle): trended higher with adropin treatment | p-eNOS/total eNOS ratio ([1]; one day post-SAH): no change in p-eNOS/total eNOS ratios between any groups | eNOS phosphorylation (Ser1179) ([1]; one day post-SAH, vs SAH+vehicle): increased eNOS phosphorylation one day post-SAH | brain water content (cerebral edema) [2]: this effect was blunted by adropin treatment | cleaved MMP9 levels (immunoblot) [3]: an effect abolished by adropin treatment | cerebral blood flow (CBF), perfusion [4]: adropin treatment restored CBF back to baseline | number of microthrombi (fibrinogen immunostaining) [5]: adropin treatment completely abolished this effect | barrier permeability, average area of positive fluorescein signal [6]: adropin treatment reduced this effect
